In patent publication US12077503B2, “Substituted cyclic amides and their use as herbicides” (FMC CORPORATION, priority 2015, dated 2024):
Read-outs that look alike come from different tables or passages of the source.

Legend:
Experiment in all cases: Test A postemergence
Type in all cases: in vivo
[1] = test system: giant foxtail (Setaria faberii); conditions: Setaria faberi, post-emergence, 240 h; for pest or weed control at 125 g/ha: 125 g ai/ha; for pest or weed control at 500 g/ha: 500 g ai/ha
In short: (§1)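 In a loam soil and sand blend, planted seeds got a preemergence directed soil spray, and young plants at the one- to two-leaf stage, 2–10 cm high, got a postemergence application; ~10 d greenhouse hold; injury rated visually, 0 = none, 100 = complete control.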

[2] = test system: barnyardgrass (Echinochloa crus-galli); conditions: Echinochloa crus-galli, post-emergence, 240 h; for pest or weed control at 125 g/ha: 125 g ai/ha; for pest or weed control at 500 g/ha: 500 g ai/ha
In short: as §1

[3] = test system: wheat (Triticum aestivum); conditions: Triticum aestivum, post-emergence, 240 h; for plant injury at 125 g/ha: 125 g ai/ha; for plant injury at 500 g/ha: 500 g ai/ha
In short: as §1

[4] = test system: Galium (catchweed bedstraw, Galium aparine); conditions: Galium, post-emergence, 240 h; for pest or weed control at 125 g/ha: 125 g ai/ha; for pest or weed control at 500 g/ha: 500 g ai/ha
In short: as §1

Kochia (Kochia scoparia) = conditions: Bassia scoparia, post-emergence, 240 h; for pest or weed control at 125 g/ha: 125 g ai/ha; for pest or weed control at 500 g/ha: 500 g ai/ha
In short: as §1

[5] = postemergence, visual injury on 0 to 100 scale (0 no effect, 100 complete control), approx. 10 d, read-out: Foxtail, Giant plant response rating
[6] = postemergence, visual injury, 0 to 100 scale (0 no effect, 100 complete control), approx. 10 d, read-out: Plant response rating, Foxtail, Giant
[7] = Postemergence, visual injury after approximately 10 d, 0 to 100 scale where 0 is no effect and 100 is complete control, read-out: Plant response rating, Barnyardgrass
[8] = postemergence, visual injury, 0 to 100 scale (0 no effect, 100 complete control), approx. 10 d, read-out: Plant response rating, Barnyardgrass
[9] = postemergence, visual injury on 0 to 100 scale (0 no effect, 100 complete control), approx. 10 d, read-out: Wheat plant response rating
[10] = postemergence, visual injury, 0 to 100 scale (0 no effect, 100 complete control), approx. 10 d, read-out: Plant response rating, Wheat
[11] = postemergence, visual injury on 0 to 100 scale (0 no effect, 100 complete control), approx. 10 d, read-out: Galium plant response rating
[12] = postemergence, visual injury, 0 to 100 scale (0 no effect, 100 complete control), approx. 10 d, read-out: Plant response rating, Galium
[13] = postemergence, visual injury on 0 to 100 scale (0 no effect, 100 complete control), approx. 10 d, read-out: Kochia plant response rating
[14] = postemergence, visual injury, 0 to 100 scale (0 no effect, 100 complete control), approx. 10 d, read-out: Plant response rating, Kochia
[15] = postemergence, visual injury rating after approximately 10 d, read-out: Foxtail, Giant plant response rating (0 to 100 scale, 0 no effect, 100 complete control)
[16] = postemergence, visual injury rating after approximately 10 d, read-out: Barnyardgrass plant response rating (0 to 100 scale, 0 no effect, 100 complete control)
[17] = postemergence, visual injury rating after approximately 10 d, read-out: Wheat plant response rating (0 to 100 scale, 0 no effect, 100 complete control)
[18] = postemergence, visual injury rating after approximately 10 d, read-out: Galium plant response rating (0 to 100 scale, 0 no effect, 100 complete control)
[19] = postemergence, visual injury rating after approximately 10 d, read-out: Kochia plant response rating (0 to 100 scale, 0 no effect, 100 complete control)
[20] = postemergence, 0 to 100 scale, 0 is no effect, 100 is complete control, read-out: Foxtail, Giant plant response rating
[21] = postemergence, 0 to 100 scale, 0 is no effect, 100 is complete control, read-out: Barnyardgrass plant response rating
[22] = postemergence, 0 to 100 scale, 0 is no effect, 100 is complete control, read-out: Wheat plant response rating
[23] = postemergence, 0 to 100 scale, 0 is no effect, 100 is complete control, read-out: Galium plant response rating
[24] = postemergence, 0 to 100 scale, 0 is no effect, 100 is complete control, read-out: Kochia plant response rating
[25] = postemergence, visual injury on 0 to 100 scale (0 no effect, 100 complete control), approx. 10 d, read-out: Barnyardgrass plant response rating

Compound	pest or weed control at 125 g/ha [1, 5] [%]	plant injury at 125 g/ha [3, 9] [%]	pest or weed control at 125 g/ha [4, 11] [%]	pest or weed control at 125 g/ha (Kochia (Kochia scoparia); [13]) [%]	pest or weed control at 125 g/ha [1, 15] [%]	pest or weed control at 125 g/ha [2, 16] [%]	plant injury at 125 g/ha [3, 17] [%]	pest or weed control at 125 g/ha [4, 18] [%]	pest or weed control at 125 g/ha (Kochia (Kochia scoparia); [19]) [%]	also measured
CC(C)COc1cccc([C@H]2CN(C)C(=O)[C@@H]2C(=O)Nc2cccc(F)c2F)c1 [Compound 1029]	80	30	20	0						pest or weed control at 500 g/ha [1, 6]: 90%; pest or weed control at 125 g/ha [2, 7]: 80%; pest or weed control at 500 g/ha [2, 8]: 90%; plant injury at 500 g/ha [3, 10]: 60%; pest or weed control at 500 g/ha [4, 12]: 40%; pest or weed control at 500 g/ha (Kochia (Kochia scoparia); [14]): 0%
Cc1cc(F)ccc1NC(=O)[C@H]1C(=O)NC[C@@H]1c1cccc(C(F)(F)F)c1 [Compound 828]					90	70	20	30	0	
CN1C[C@H](c2cc(F)cc(F)c2)[C@@H](C(=O)Nc2ncc(C(F)(F)F)cc2F)C1=O [Compound 868]					0	20	0	0	0	
CSc1ccccc1NC(=O)[C@H]1C(=O)N(C)C[C@@H]1c1ccc(OC(F)F)cc1 [Compound 1212]										pest or weed control at 125 g/ha ([1]; postemergence, visual injury vs untreated controls after approx. 10 d, 0 = no effect, 100 = complete control, read-out: Foxtail, Giant plant response rating (0 to 100 scale)): 70%; pest or weed control at 500 g/ha [1, 20]: 90%; pest or weed control at 125 g/ha ([2]; postemergence, visual injury vs untreated controls after approx. 10 d, 0 = no effect, 100 = complete control, read-out: Barnyardgrass plant response rating (0 to 100 scale)): 80%; pest or weed control at 500 g/ha [2, 21]: 100%; plant injury at 125 g/ha ([3]; postemergence, visual injury vs untreated controls after approx. 10 d, 0 = no effect, 100 = complete control, read-out: Wheat plant response rating (0 to 100 scale)): 0%; plant injury at 500 g/ha [3, 22]: 40%; pest or weed control at 125 g/ha ([4]; postemergence, visual injury vs untreated controls after approx. 10 d, 0 = no effect, 100 = complete control, read-out: Galium plant response rating (0 to 100 scale)): 50%; pest or weed control at 500 g/ha [4, 23]: 60%; pest or weed control at 125 g/ha (Kochia (Kochia scoparia); postemergence, visual injury vs untreated controls after approx. 10 d, 0 = no effect, 100 = complete control, read-out: Kochia plant response rating (0 to 100 scale)): 60%; pest or weed control at 500 g/ha (Kochia (Kochia scoparia); [24]): 80%
O=C1NC[C@H](c2csc(C(F)F)c2)[C@H]1C(=O)Nc1cccc(F)c1F [Compound 1119]	30	20	40	40						pest or weed control at 500 g/ha [1, 20]: 70%; pest or weed control at 125 g/ha [2, 25]: 80%; pest or weed control at 500 g/ha [2, 21]: 90%; plant injury at 500 g/ha [3, 22]: 50%; pest or weed control at 500 g/ha [4, 23]: 50%; pest or weed control at 500 g/ha (Kochia (Kochia scoparia); [24]): 60%
CC(C)(C)c1ccc([C@H]2CNC(=O)[C@@H]2C(=O)Nc2cccc(F)c2F)cc1 [Compound 847]					0	0	0	0	0	
CCOc1ccc([C@H]2CN(C)C(=O)[C@@H]2C(=O)Nc2ccccc2F)cc1 [Compound 903]					80	80	0	10	0	
Cc1ccc([C@H]2CN(C)C(=O)[C@@H]2C(=O)Nc2cccc(F)c2F)cc1C [Compound 1039]	90	50	40	40						pest or weed control at 500 g/ha [1, 6]: 90%; pest or weed control at 125 g/ha [2, 7]: 90%; pest or weed control at 500 g/ha [2, 8]: 90%; pest or weed control at 500 g/ha [4, 12]: 60%; pest or weed control at 500 g/ha (Kochia (Kochia scoparia); [14]): 60%
CN1C[C@H](c2cscn2)[C@@H](C(=O)Nc2cccc(F)c2F)C1=O [Compound 1113]	0	0	0	0						pest or weed control at 500 g/ha [1, 20]: 0%; pest or weed control at 125 g/ha [2, 25]: 0%; pest or weed control at 500 g/ha [2, 21]: 0%; plant injury at 500 g/ha [3, 22]: 0%; pest or weed control at 500 g/ha [4, 23]: 0%; pest or weed control at 500 g/ha (Kochia (Kochia scoparia); [24]): 0%
Cc1c(F)cccc1NC(=O)[C@H]1C(=O)N(C)C[C@@H]1c1cc(F)cc(F)c1 [Compound 1140]	90	30	40	0						pest or weed control at 500 g/ha [1, 20]: 90%; pest or weed control at 125 g/ha [2, 25]: 90%; pest or weed control at 500 g/ha [2, 21]: 90%; plant injury at 500 g/ha [3, 22]: 70%; pest or weed control at 500 g/ha [4, 23]: 50%; pest or weed control at 500 g/ha (Kochia (Kochia scoparia); [24]): 40%
CC(C)COc1cccc([C@H]2CN(C)C(=O)[C@@H]2C(=O)Nc2ccccc2F)c1 [Compound 1028]	80	0	40	0						pest or weed control at 500 g/ha [1, 6]: 80%; pest or weed control at 125 g/ha [2, 7]: 80%; pest or weed control at 500 g/ha [2, 8]: 90%; plant injury at 500 g/ha [3, 10]: 40%; pest or weed control at 500 g/ha [4, 12]: 50%; pest or weed control at 500 g/ha (Kochia (Kochia scoparia); [14]): 0%
Cc1cc([C@H]2CN(C)C(=O)[C@@H]2C(=O)Nc2ccc(F)c(F)c2F)ccc1Cl [Compound 931]										pest or weed control at 125 g/ha ([1]; Postemergence, visual injury after approximately 10 d, 0 to 100 scale where 0 is no effect and 100 is complete control, read-out: Plant response rating, Foxtail, Giant): 90%; pest or weed control at 125 g/ha [2, 7]: 80%; plant injury at 125 g/ha ([3]; Postemergence, visual injury after approximately 10 d, 0 to 100 scale where 0 is no effect and 100 is complete control, read-out: Plant response rating, Wheat): 30%; pest or weed control at 125 g/ha ([4]; Postemergence, visual injury after approximately 10 d, 0 to 100 scale where 0 is no effect and 100 is complete control, read-out: Plant response rating, Galium): 40%; pest or weed control at 125 g/ha (Kochia (Kochia scoparia); Postemergence, visual injury after approximately 10 d, 0 to 100 scale where 0 is no effect and 100 is complete control, read-out: Plant response rating, Kochia): 30%
Cc1cc(C)cc([C@H]2CNC(=O)[C@@H]2C(=O)Nc2ccccc2C(F)(F)F)c1 [Compound 909]					40	50	0	0	0	
CC(C)c1cccc([C@H]2CN(C)C(=O)[C@@H]2C(=O)Nc2ccccc2S(C)(=O)=O)c1 [Compound 820]					90	90	40	30	20	
